In patent US12344618B2, “Heterotricyclic derivative compound and use of same” (HANMI PHARMACEUTICAL CO., LTD., priority 2019, dated 2025):
Like-named read-outs stand apart in the source and are kept apart here.

Legend:
EZH2 = EZH2 (Homo sapiens, UniProt Q15910); test: Inhibitory activity against EZH2 methyltransferase (radiometric scintillation proximity assay); conditions: Enzyme inhibitory activity (IC50, nM) EZH2, 2.3 nmol/L enzyme, 90 minutes, room temperature;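 note: Read-out is substrate peptide methylation, captured on streptavidin-coated SPA beads and counted by scintillation, with the reaction run in Tris-HCl buffer at pH 8.0 containing 1% DMSO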
Procedure: (§2) The inhibitory activities of the synthetic compounds against EZH1 or EZH2 methyltransferase were measured. The experiment was conducted by Reaction Biology Corp., and the activity of EZH1 or EZH2 was measured using a radiometric scintillation proximity assay. […] The reaction buffer consisted of 50 mmol/L Tris-HCl (pH 8.0), 50 mmol/L NaCl, 1 mmol/L EDTA, 1 mmoL/L DTT, 1 mmol/L PMSF, and 1% DMSO. Trichloroacetic acid was added to terminate the reaction, and PVT streptavidin-coated SPA beads were added to each reaction solution, followed by further reaction at room temperature for 1 hour again. The methylation value of the substrate peptide was measured using the TopCount NXT plate reader.

EZH1 = target: T1, EZH1 (Homo sapiens, UniProt Q92800); test: Inhibitory activity against EZH1 methyltransferase (radiometric scintillation proximity assay); assay type: biochemical; conditions: 2.3 nmol/L enzyme, 90 minutes, room temperature;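 note: Read-out is methylation of a substrate peptide, captured on streptavidin-coated SPA beads and counted by scintillation, in Tris-HCl buffer at pH 8.0 with 1% DMSO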
T1 construct: purchased Reaction Biology Corp. (contract assay)
Procedure: as §2

[1] = Metabolic stability in human liver microsomes; assay type: in vitro ADME; conditions: 5 μM compound, 1 mg/mL human liver microsomes, 37° C., NADPH regenerating system
Procedure: (§1) In order to confirm the metabolic stability of the synthetic compounds in the liver, 5 μM test compound and 1 mg/mL human, dog, rat or mouse liver microsomes were allowed to react with each other at 37° C. in the presence of the NADPH regenerating system for 1 hour. After 1 hour, the reaction was terminated and the supernatant obtained by centrifugation was analyzed by HPLC. With the peak value obtained as the analysis result, the residual amount (%) was calculated using the following equation through the peak value of the test compound after 1 hour of the reaction versus the peak value of the test compound at 0 min. Residual amount (%)=(peak value of test compound after 1 hour of reaction/peak value of test compound at 0 min)×100

[2] = Metabolic stability in mouse liver microsomes; assay type: in vitro ADME; conditions: 5 μM compound, 1 mg/mL mouse liver microsomes, 37° C., NADPH regenerating system
Procedure: as §1

[3] = tested on: KARPAS-422 (EZH2 Y641N mutation); test: Cell growth inhibition test, KARPAS-422; assay type: cell-based; conditions: KARPAS-422, culture time 7 days, read-out: Cell growth inhibitory activity (GI50, nM) KARPAS-422 (EZH2 Y641N mutation)
Procedure: Each type of the cultured cells was seeded in 6-well plates or 48-96 well plates, and subculture or medium replacement was performed every 3 to 4 days. Next, the cells were subcultured for a total of 7 to 14 days, and then seeded in 96-well plates. 3 to 5 days before the measurement of the effect, the cells were seeded in 96-well plates, and then the absorbance (Tz) on the day of seeding was measured. The absorbance after the reaction was measured by the plate reader device Synergy NeoAlpha (Biotek) using Cell-Titer-Glo Cell Viability Assay (Promega, G7573) according to the attached manual. Based on the absorbance (Tz) measured on the seeding day and the absorbance of each of the DMSO-treated group (C) and the sample-added group (Ti) measured on the day of effect determination, the percentage of cell proliferation inhibition was calculated according to the following Equation 1. [(Ti−Tz)/(C−Tz)]×100 for concentrations for which Ti≥Tz […] for concentrations for which Ti<Tz. [Equation 1]

[4] = Mouse pharmacokinetics, oral single dose; assay type: in vivo; conditions: mice (ICR, male), oral single dose 30 mg/kg, plasma, 30 mg/kg; for AUC: male, ICR, mouse, po, read-out: Area under oral curve (AUC)
Procedure: Pharmacokinetics of the synthetic compounds as EZH2 inhibitors in mice (ICR, 8-week-old, male) were tested.
The oral administration group was maintained in a fasting state from the day before the test to 4 hours after administration of the test compound. On the day of administration of the test compound, the weight of each animal was measured and each synthetic compound was formulated using a selected solvent based on 30 mg/kg (10 mL/kg). Each test compound was administered orally in a single dose, a certain amount of the blood was taken at a predetermined time, plasma was isolated therefrom, and the concentration of each test compound in the plasma was analyzed using LC-MS/MS (Waters UPLC H-Class/Xevo TQ; Waters, USA). Pharmacokinetic coefficients were calculated by a linear-log trapezoidal summation formula using a non-compartment analysis of the Phoenix™ WinNonlin (Certara, USA) program through the plasma concentration curve over time.

[5] = Homo sapiens, KARPAS-422, 168 h

T1 sequence (Q92800 whole entry): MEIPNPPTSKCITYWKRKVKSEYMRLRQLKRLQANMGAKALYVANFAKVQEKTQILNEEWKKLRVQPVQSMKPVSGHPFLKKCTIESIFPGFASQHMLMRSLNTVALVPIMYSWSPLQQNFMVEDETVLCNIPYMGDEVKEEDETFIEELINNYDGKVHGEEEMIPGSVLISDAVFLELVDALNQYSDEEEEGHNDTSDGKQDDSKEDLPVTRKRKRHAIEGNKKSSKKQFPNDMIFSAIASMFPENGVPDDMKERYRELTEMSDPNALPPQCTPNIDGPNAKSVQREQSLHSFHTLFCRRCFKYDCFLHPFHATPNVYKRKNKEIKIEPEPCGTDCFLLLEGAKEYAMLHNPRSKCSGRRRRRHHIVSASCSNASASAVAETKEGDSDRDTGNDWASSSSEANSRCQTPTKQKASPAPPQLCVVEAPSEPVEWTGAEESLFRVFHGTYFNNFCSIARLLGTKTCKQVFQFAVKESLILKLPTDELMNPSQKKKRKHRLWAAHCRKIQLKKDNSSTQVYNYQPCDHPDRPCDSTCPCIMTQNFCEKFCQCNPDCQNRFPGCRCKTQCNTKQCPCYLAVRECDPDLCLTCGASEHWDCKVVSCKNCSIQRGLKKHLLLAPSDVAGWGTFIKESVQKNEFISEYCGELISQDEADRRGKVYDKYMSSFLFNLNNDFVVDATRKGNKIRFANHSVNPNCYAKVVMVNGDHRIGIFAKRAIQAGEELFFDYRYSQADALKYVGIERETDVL
T1 sequence (O75530 whole entry partner): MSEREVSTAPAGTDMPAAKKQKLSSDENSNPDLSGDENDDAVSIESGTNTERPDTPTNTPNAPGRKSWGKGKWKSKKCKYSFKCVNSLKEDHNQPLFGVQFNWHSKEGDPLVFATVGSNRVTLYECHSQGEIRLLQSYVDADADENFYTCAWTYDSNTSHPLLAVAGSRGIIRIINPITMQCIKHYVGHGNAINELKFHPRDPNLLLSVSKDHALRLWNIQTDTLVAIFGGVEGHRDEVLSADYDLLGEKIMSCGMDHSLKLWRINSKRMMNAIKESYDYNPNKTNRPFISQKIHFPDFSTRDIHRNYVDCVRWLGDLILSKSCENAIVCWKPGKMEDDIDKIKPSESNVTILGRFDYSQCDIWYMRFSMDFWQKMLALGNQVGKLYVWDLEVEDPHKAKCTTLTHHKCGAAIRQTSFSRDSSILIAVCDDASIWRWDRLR
T1 sequence (Q15022 whole entry partner): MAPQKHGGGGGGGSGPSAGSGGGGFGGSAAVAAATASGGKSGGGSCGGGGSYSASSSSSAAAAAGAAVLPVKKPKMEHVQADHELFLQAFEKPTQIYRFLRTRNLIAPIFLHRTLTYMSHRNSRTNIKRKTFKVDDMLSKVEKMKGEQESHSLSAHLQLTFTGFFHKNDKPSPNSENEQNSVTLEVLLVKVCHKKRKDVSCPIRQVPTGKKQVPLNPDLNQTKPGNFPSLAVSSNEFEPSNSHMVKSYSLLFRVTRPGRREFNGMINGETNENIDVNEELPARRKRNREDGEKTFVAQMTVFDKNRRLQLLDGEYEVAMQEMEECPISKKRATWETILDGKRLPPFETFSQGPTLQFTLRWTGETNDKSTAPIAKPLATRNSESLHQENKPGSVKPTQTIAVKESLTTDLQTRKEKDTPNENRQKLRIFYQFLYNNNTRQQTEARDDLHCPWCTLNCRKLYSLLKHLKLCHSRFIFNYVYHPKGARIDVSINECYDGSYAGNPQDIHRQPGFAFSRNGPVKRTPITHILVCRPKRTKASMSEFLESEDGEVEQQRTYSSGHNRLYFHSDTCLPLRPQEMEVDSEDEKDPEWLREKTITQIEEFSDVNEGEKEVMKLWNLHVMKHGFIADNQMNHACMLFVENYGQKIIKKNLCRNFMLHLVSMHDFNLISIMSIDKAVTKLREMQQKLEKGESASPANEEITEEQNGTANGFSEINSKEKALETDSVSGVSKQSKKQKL
T1 sequence (Q09028 whole entry partner): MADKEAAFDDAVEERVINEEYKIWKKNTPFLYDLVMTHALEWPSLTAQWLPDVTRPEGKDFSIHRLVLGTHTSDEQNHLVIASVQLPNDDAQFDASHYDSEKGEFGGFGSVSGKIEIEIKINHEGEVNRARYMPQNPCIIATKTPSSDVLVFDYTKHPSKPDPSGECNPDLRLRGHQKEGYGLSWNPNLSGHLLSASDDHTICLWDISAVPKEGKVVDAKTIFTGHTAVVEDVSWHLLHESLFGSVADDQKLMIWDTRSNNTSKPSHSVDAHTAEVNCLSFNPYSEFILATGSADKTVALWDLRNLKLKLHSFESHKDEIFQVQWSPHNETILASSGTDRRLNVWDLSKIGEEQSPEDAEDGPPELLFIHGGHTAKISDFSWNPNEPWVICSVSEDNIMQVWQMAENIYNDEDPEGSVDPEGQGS
T1 sequence (Q6ZN18 whole entry partner): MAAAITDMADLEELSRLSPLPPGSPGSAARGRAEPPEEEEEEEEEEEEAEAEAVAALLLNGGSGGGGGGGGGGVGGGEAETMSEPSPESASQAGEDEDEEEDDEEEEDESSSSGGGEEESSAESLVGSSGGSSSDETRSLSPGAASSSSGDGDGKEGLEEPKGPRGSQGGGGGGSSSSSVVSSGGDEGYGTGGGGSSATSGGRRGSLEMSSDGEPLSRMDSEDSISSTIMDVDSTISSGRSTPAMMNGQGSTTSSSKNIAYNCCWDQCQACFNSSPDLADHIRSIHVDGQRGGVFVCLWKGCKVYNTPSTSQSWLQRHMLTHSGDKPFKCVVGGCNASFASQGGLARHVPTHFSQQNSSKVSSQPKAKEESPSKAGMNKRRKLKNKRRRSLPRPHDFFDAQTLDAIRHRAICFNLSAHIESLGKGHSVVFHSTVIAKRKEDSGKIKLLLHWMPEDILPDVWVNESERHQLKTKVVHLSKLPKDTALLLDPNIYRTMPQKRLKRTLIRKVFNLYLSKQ
Sequence of EZH2 (Q15910 whole entry): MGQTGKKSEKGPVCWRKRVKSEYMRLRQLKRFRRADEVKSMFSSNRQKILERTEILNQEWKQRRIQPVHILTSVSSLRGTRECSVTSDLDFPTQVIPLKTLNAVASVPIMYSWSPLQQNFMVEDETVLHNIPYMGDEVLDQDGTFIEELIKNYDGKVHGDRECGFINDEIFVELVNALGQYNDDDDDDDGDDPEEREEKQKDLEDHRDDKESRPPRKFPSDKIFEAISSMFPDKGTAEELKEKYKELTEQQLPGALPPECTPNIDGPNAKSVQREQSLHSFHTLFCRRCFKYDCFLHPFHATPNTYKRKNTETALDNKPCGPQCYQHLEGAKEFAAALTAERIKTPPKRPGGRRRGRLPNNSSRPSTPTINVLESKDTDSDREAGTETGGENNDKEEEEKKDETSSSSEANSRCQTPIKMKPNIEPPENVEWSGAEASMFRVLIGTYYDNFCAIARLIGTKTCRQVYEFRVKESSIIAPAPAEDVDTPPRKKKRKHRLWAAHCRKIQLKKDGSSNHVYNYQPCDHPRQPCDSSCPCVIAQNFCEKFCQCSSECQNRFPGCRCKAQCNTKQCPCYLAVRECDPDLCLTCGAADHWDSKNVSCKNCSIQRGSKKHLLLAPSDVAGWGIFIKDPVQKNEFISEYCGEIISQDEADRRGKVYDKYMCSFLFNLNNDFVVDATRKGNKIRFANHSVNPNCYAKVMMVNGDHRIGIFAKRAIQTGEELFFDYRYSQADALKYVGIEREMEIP
Sequence of EZH2 (O75530 whole entry partner): as the sequence (O75530 whole entry partner) above
Sequence of EZH2 (Q15022 whole entry partner): as the sequence (Q15022 whole entry partner) above
Sequence of EZH2 (Q09028 whole entry partner): as the sequence (Q09028 whole entry partner) above
Sequence of EZH2 (Q6ZN18 whole entry partner): as the sequence (Q6ZN18 whole entry partner) above

IC50 (EZH2) [nM] | IC50 (EZH1) [nM] | Residual amount (%) of test compound after 1 hour of reaction, Human [1] [%] | Residual amount (%) of test compound after 1 hour of reaction, Mouse [2] [%] | GI50 [3] [nM] | Area under oral curve (AUC) [4] | Half life T1/2 [4] [h] | GI50 [3, 5] [nM] | AUC [4] [ng·h/mL] | SMILES
1.3 | 16 | 89 | 78 | 2.4 | – | – | – | – | Cc1cc(C)c(CN2CCc3c(C)c4c(c(Cl)c3C2=O)OC(C)([C@H]2CC[C@H](N(C)C)CC2)O4)c(=O)[nH]1 (single isomer, unassigned) [Compound 5, 4-chloro-6-((4,6-dimethyl-2-oxo-1,2-dihydropyridin-3-yl)methyl)-2-(trans-4-(dimethylamino)cyclohexyl)-2,9-dimethyl-7,8-dihydro-[1,3]dioxolo[4,5-g]isoquinolin-5(6H)-one]
116 to 473 | > 1000 | 37 | 70 | ≥ 563 | – | – | – | – | Cc1cc(C)c(CN2CCc3c(Cl)c4c(c(C)c3C2=O)OC(C)([C@H]2CC[C@H](N(C)C)CC2)O4)c(=O)[nH]1 (single isomer, unassigned) [Compound 11, 9-chloro-6-((4,6-dimethyl-2-oxo-1,2-dihydropyridin-3-yl)methyl)-2-(trans-4-(dimethylamino)cyclohexyl)-2,4-dimethyl-7,8-dihydro-[1,3]dioxolo[4,5-g]isoquinolin-5(6H)-one]
69 | > 1000 | 53 | 63 | 69 | – | – | – | – | Cc1cc(C)c(CN2CCc3c(C)c4c(c(C)c3C2=O)OC(C)([C@H]2CC[C@H](N(C)C)CC2)O4)c(=O)[nH]1 (single isomer, unassigned) [Compound 41, 6-((4,6-dimethyl-2-oxo-1,2-dihydropyridin-3-yl)methyl)-2-(trans-4-(dimethylamino)cyclohexyl)-2,4,9-trimethyl-7,8-dihydro-[1,3]dioxolo[4,5-g]isoquinolin-5(6H)-one]
– | – | 35 | 54 | 419 | 12,239 ng · hr/mL | 2.5 | – | – | Cc1cc(C)c(CN2CCc3c(Br)c4c(c(C)c3C2=O)OC(C)([C@H]2CC[C@H](N(C)C)CC2)O4)c(=O)[nH]1 (single isomer, unassigned) [Compound 50, 9-bromo-6-((4,6-dimethyl-2-oxo-1,2-dihydropyridin-3-yl)methyl)-2-(trans-4-(dimethylamino)cyclohexyl)-2,4-dimethyl-7,8-dihydro-[1,3]dioxolo[4,5-g]isoquinolin-5(6H)-one]
2.6 | 20 | 84 | 79 | – | – | – | 1.9 to 2.6 | 770 | Cc1cc(C)c(CN2CCc3c(C)c4c(c(Cl)c3C2=O)OC(C)([C@H]2CC[C@H](N(C)C)CC2)O4)c(=O)[nH]1 (stereo partly drawn) [Compound 4]
3.2 | 55 | – | – | – | – | – | 14 | – | Cc1cc(C)c(CN2CCc3c(Cl)c4c(c(C)c3C2=O)OC(C)(C2CCNCC2)O4)c(=O)[nH]1 (stereo not drawn) [Compound 28, 9-chloro-6-((4,6-dimethyl-2-oxo-1,2-dihydropyridin-3-yl)methyl)-2,4-dimethyl-2-(piperidin-4-yl)-7,8-dihydro-[1,3]dioxolo[4,5-g]isoquinolin-5(6H)-one]
5 | 136 | – | – | – | – | – | 51 | – | Cc1cc(C)c(CN2CCc3c(Cl)c4c(c(C)c3C2=O)OC(C)(C2CCN(C)CC2)O4)c(=O)[nH]1 (stereo not drawn) [Compound 29, 9-chloro-6-((4,6-dimethyl-2-oxo-1,2-dihydropyridin-3-yl)methyl)-2,4-dimethyl-2-(1-methylpiperidin-4-yl)-7,8-dihydro-[1,3]dioxolo[4,5-g]isoquinolin-5(6H)-one]
3.4 | 190 | – | – | – | – | – | 307 | – | CC[C@@H](O)C(=O)N1CCC(C2(C)Oc3c(C)c4c(c(Cl)c3O2)CCN(Cc2c(C)cc(C)[nH]c2=O)C4=O)CC1 (stereo partly drawn) [Compound 30, 9-chloro-6-((4,6-dimethyl-2-oxo-1,2-dihydropyridin-3-yl)methyl)-2-(1-((R)-2-hydroxybutanoyl)piperidin-4-yl)-2,4-dimethyl-7,8-dihydro-[1,3]dioxolo[4,5-g]isoquinolin-5(6H)-one]
3.8 | 51 | – | – | – | – | – | 231 | – | Cc1cc(C)c(CN2CCc3c(Cl)c4c(c(C)c3C2=O)OC(C)(C2CCN(CC(F)(F)F)CC2)O4)c(=O)[nH]1 (stereo not drawn) [Compound 31, 9-chloro-6-((4,6-dimethyl-2-oxo-1,2-dihydropyridin-3-yl)methyl)-2,4-dimethyl-2-(1-(2,2,2-trifluoroethyl)piperidin-4-yl)-7,8-dihydro-[1,3]dioxolo[4,5-g]isoquinolin-5(6H)-one]
1.6 | 41 | 70 | 64 | – | – | – | 4.4 | 1520 | CN[C@H]1CC[C@H](C2(C)Oc3c(C)c4c(c(Br)c3O2)CCN(Cc2c(C)cc(C)[nH]c2=O)C4=O)CC1 (stereo partly drawn) [Compound 51, 9-bromo-6-((4,6-dimethyl-2-oxo-1,2-dihydropyridin-3-yl)methyl)-2,4-dimethyl-2-(trans-4-(methylamino)cyclohexyl)-7,8-dihydro-[1,3]dioxolo[4,5-g]isoquinolin-5(6H)-one]
3.4 to 3.7 | 32 to 55 | 62 | 61 | – | – | – | 4.4 to 9.7 | – | C=Cc1c2c(c(C)c3c1OC(C)([C@H]1CC[C@H](N(C)C)CC1)O3)C(=O)N(Cc1c(C)cc(C)[nH]c1=O)CC2 (stereo partly drawn) [Compound 52, 6-((4,6-dimethyl-2-oxo-1,2-dihydropyridin-3-yl)methyl)-2-(trans-4-(dimethylamino)cyclohexyl)-2,4-dimethyl-9-vinyl-7,8-dihydro-[1,3]dioxolo[4,5-g]isoquinolin-5(6H)-one]
4.5 to 9.1 | 27 to 139 | 67 | 85 | – | – | – | 5.1 to 14 | – | C#Cc1c2c(c(C)c3c1OC(C)([C@H]1CC[C@H](N(C)C)CC1)O3)C(=O)N(Cc1c(C)cc(C)[nH]c1=O)CC2 (stereo partly drawn) [Compound 53, 6-((4,6-dimethyl-2-oxo-1,2-dihydropyridin-3-yl)methyl)-2-(trans-4-(dimethylamino)cyclohexyl)-9-ethynyl-2,4-dimethyl-7,8-dihydro-[1,3]dioxolo[4,5-g]isoquinolin-5(6H)-one]
6.4 | 41 | – | – | – | – | – | 19 | – | Cc1cc(C)c(CN2CCc3c(c(C)c4c(c3C3CC3)OC(C)([C@H]3CC[C@H](N(C)C)CC3)O4)C2=O)c(=O)[nH]1 (stereo partly drawn) [Compound 54, 9-cyclopropyl-6-((4,6-dimethyl-2-oxo-1,2-dihydropyridin-3-yl)methyl)-2-(trans-4-(dimethylamino)cyclohexyl)-2,4-dimethyl-7,8-dihydro-[1,3]dioxolo[4,5-g]isoquinolin-5(6H)-one]
2.7 | 65 | – | – | – | – | – | 10 | – | Cc1cc(C)c(CN2CCc3c(C#N)c4c(c(C)c3C2=O)OC(C)([C@H]2CC[C@H](N(C)C)CC2)O4)c(=O)[nH]1 (stereo partly drawn) [Compound 69, 6-((4,6-dimethyl-2-oxo-1,2-dihydropyridin-3-yl)methyl)-2-(trans-4-(dimethylamino)cyclohexyl)-2,4-dimethyl-5-oxo-5,6,7,8-tetrahydro-[1,3]dioxolo[4,5-g]isoquinolin-9-carbonitrile]
